For 18 compounds, IC50 results are on record in US9670227B2, “Thienopyrimidine derivatives, a process for their preparation and pharmaceutical compositions containing them” (LES LABORATOIRES SERVIER, priority 2013, dated 2017).

Where two headings read alike, the source gives them in different places.

For one assay, the target named is Mcl-1 protein (UniProtKB primary accession number: Q07820) (Homo sapiens, UniProt Q07820). Description: Inhibition of Mcl-1 by fluorescence polarisation, Method 1. In kind it is binding. Conditions: read-out: IC50 (M) Mcl-1 FP. The method, boiled down:
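FP competition, 11-point compound titration in 5% final DMSO; protein and labelled probe at 5 nM and 1 nM final in HEPES/NaCl/Tween 20 buffer, pH 7.4.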
For orientation: In fluorescence polarisation assays a small probe gives low polarisation when free and higher when bound to something large.

The subject of assay [1] is H929 multiple myeloma tumour line. Description: In vitro cytotoxicity, Microculture Tetrazolium Assay. It is filed as cell-based. Conditions: H929 cells, 48 hours exposure, MTT, read-out: IC50 (μM) MTT H929. On the procedure: The cytotoxicity studies were carried out on the H929 multiple myeloma tumour line.
The cells are distributed onto microplates and exposed to the test compounds for 48 hours.

Setting [2] is: fluorescence polarisation, Method 1, or Method 2.
Where [3] appears, read: fluorescence polarisation test, Method 2 values are underlined in the patent (underlining not visible here).

Mcl-1 protein, sequence (Q07820 whole entry): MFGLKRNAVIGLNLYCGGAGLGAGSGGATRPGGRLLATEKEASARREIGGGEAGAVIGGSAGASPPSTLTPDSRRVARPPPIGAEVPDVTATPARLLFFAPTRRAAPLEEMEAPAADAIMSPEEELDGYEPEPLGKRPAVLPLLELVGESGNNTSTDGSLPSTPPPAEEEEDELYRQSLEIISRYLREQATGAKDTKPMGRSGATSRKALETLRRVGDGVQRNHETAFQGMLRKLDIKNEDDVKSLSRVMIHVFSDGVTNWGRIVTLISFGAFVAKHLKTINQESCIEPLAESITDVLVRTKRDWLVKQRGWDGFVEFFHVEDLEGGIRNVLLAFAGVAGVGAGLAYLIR

One may read the IC50 as the concentration needed to halve the response being measured. In the case of `COc1ccc(-c2nccc(COc3ccccc3CC(Oc3ncnc4sc(-c5ccc(F)cc5)c(-c5ccc(OCCN6CCN(C)CC6)c(Cl)c5C)c34)C(=O)O)n2)c(OC)c1` [Example 733, (2R)-2-{[(5Sa)-5-{3-chloro-2-methyl-4-[2-(4-methylpiperazin-1-yl)ethoxy]phenyl}-6-(4-fluorophenyl)thieno[2,3-d]pyrimidin-4-yl]oxy}-3-(2-{[2-(2,4-dimethoxyphenyl)pyrimidin-4-yl]methoxy}phenyl)propanoic acid], the IC50 worked out at 9.48e-10 M on Mcl-1 protein (setting [2]) and 0.005 µM in assay [1] (Homo sapiens, NCI-H929, 48 h).

Consider `CCc1sc2ncnc(OC(Cc3ccccc3)C(=O)O)c2c1-c1ccc(OCC(=O)N2CCCC2)c(Cl)c1C` [Example 391, (2R)-2-[((5Sa)-5-{3-chloro-2-methyl-4-[2-oxo-2-(pyrrolidin-1-yl)ethoxy]phenyl}-6-ethylthieno[2,3-d]pyrimidin-4-yl)oxy]-3-phenylpropanoic acid], for which the IC50 on Mcl-1 protein (setting [3]) is 3.7e-08 M; in assay [1] (Homo sapiens, NCI-H929, 48 h), 22.1 µM.

Consider `COc1ccccc1Cn1nccc1COc1ccccc1CC(Oc1ncnc2sc(-c3ccc(F)cc3)c(-c3ccc(OCCN4CCN(C)CC4)c(Cl)c3C)c12)C(=O)O` [Example 739, (2R)-2-{[(5Sa)-5-{3-chloro-2-methyl-4-[2-(4-methylpiperazin-1-yl)ethoxy]phenyl}-6-(4-fluorophenyl)thieno[2,3-d]pyrimidin-4-yl]oxy}-3-(2-{[1-(2-methoxybenzyl)-1H-pyrazol-5-yl]methoxy}phenyl)propanoic acid], for which the IC50 at Mcl-1 protein (setting [2]) was 2.32e-09 M; in assay [1] (Homo sapiens, NCI-H929, 48 h), 0.093 µM.

Regarding `Cc1c(-c2c(-c3ccco3)sc3ncnc(OC(Cc4ccccc4OCc4nccn4C)C(=O)O)c23)ccc(OCCN2CCN(C)CC2)c1Cl` [Example 287, (2R)-2-{[(5Sa)-5-{3-chloro-2-methyl-4-[2-(4-methylpiperazin-1-yl)ethoxy]phenyl}-6-(furan-2-yl)thieno[2,3-d]pyrimidin-4-yl]oxy}-3-{2-[(1-methyl-1H-imidazol-2-yl)methoxy]phenyl}propanoic acid], the IC50 is 8.3e-09 M on Mcl-1 protein (setting [3]) and 0.667 µM in assay [1] (Homo sapiens, NCI-H929, 48 h).

Turning to `COc1nccc(COc2ccccc2CC(Oc2ncnc3sc(-c4ccc(F)c(OCCO)c4)c(-c4ccc(OCCN5CCN(C)CC5)c(Cl)c4C)c23)C(=O)O)n1` [Example 597, (2R)-2-[((5Sa)-5-{3-chloro-2-methyl-4-[2-(4-methylpiperazin-1-yl)ethoxy]phenyl}-6-[4-fluoro-3-(2-hydroxyethoxy)phenyl]thieno[2,3-d]pyrimidin-4-yl)oxy]-3-{2-[(2-methoxypyrimidin-4-yl)methoxy]phenyl}propanoic acid], the IC50 on Mcl-1 protein (setting [2]) came out at 6.2e-09 M; in assay [1] (Homo sapiens, NCI-H929, 48 h), 0.449 µM.

For `Cc1c(-c2c(-c3ccc(F)o3)sc3ncnc(OC(Cc4ccccc4OCc4cnccn4)C(=O)O)c23)ccc(OCCN(C)C)c1Cl` [Example 206, (2R)-2-{[(5Sa)-5-{3-chloro-4-[2-(dimethylamino)ethoxy]-2-methylphenyl}-6-(5-fluorofuran-2-yl)thieno[2,3-d]pyrimidin-4-yl]oxy}-3-[2-(pyrazin-2-ylmethoxy)phenyl]propanoic acid], the IC50 at Mcl-1 protein (setting [3]) is 8e-09 M; in assay [1] (Homo sapiens, NCI-H929, 48 h) it was 0.135 µM.

In the case of `COc1ccccc1CC(Oc1ncnc2sc(-c3ccc(F)cc3F)c(-c3ccc(OCCN4CCN(C)CC4)c(Cl)c3C)c12)C(=O)O` [Example 540, (2R)-2-{[(5Sa)-5-{3-chloro-2-methyl-4-[2-(4-methylpiperazin-1-yl)ethoxy]phenyl}-6-(2,4-difluorophenyl)thieno[2,3-d]pyrimidin-4-yl]oxy}-3-(2-methoxyphenyl)propanoic acid], the IC50 was 3.2e-09 M at Mcl-1 protein (setting [2]) and 0.311 µM in assay [1] (Homo sapiens, NCI-H929, 48 h).

As for `Cc1c(-c2c(-c3ccsc3)sc3ncnc(OC(Cc4ccccc4)C(=O)O)c23)ccc(OCCN2CCN(C)CC2)c1Cl` [Example 510, (2R)-2-{[(5Sa)-5-{3-chloro-2-methyl-4-[2-(4-methylpiperazin-1-yl)ethoxy]phenyl}-6-(thiophen-3-yl)thieno[2,3-d]pyrimidin-4-yl]oxy}-3-phenylpropanoic acid], the IC50 at Mcl-1 protein (setting [2]) turned out to be 3.9e-08 M; in assay [1] (Homo sapiens, NCI-H929, 48 h), 0.639 µM.

Consider `COc1ccc(-c2sc3ncnc(OC(Cc4ccccc4OCc4ccnn4CC(F)(F)F)C(=O)O)c3c2-c2ccc(OCCN3CCN(C)CC3)c(Cl)c2C)cn1` [Example 696, (2R)-2-{[(5Sa)-5-{3-chloro-2-methyl-4-[2-(4-methylpiperazin-1-yl)ethoxy]phenyl}-6-(6-methoxypyridin-3-yl)thieno[2,3-d]pyrimidin-4-yl]oxy}-3-(2-{[1-(2,2,2-trifluoroethyl)-1H-pyrazol-5-yl]methoxy}phenyl)propanoic acid], for which the IC50 on Mcl-1 protein (setting [2]) came to 9.6e-09 M; in assay [1] (Homo sapiens, NCI-H929, 48 h), 0.05 µM.

Regarding `Cc1ccc(-c2sc3ncnc(O[C@H](Cc4ccccc4)C(=O)O)c3c2-c2ccc(OCCN3CCN(C)CC3)c(Cl)c2C)s1` [Example 500, (2R)-2-{[(5Sa)-5-{3-chloro-2-methyl-4-[2-(4-methylpiperazin-1-yl)ethoxy]phenyl}-6-(5-methylthiophen-2-yl)thieno[2,3-d]pyrimidin-4-yl]oxy}-3-phenylpropanoic acid], the IC50 at Mcl-1 protein (setting [2]) amounted to 8e-08 M; in assay [1], 2.25 µM.

For the compound `COc1cc(-c2sc3ncnc(OC(Cc4ccccc4OCC4CCCO4)C(=O)O)c3c2-c2ccc(OCCN3CCN(C)CC3)c(Cl)c2C)ccc1F` [Example 379, (2R)-2-{[(5Sa)-5-{3-chloro-2-methyl-4-[2-(4-methylpiperazin-1-yl)ethoxy]phenyl}-6-(4-fluoro-3-methoxyphenyl)thieno[2,3-d]pyrimidin-4-yl]oxy}-3-{2-[(2R)-tetrahydrofuran-2-ylmethoxy]phenyl}propanoic acid], the IC50 at Mcl-1 protein (setting [3]) was found to be 1.3e-08 M; in assay [1] (Homo sapiens, NCI-H929, 48 h), 0.174 µM.

For `Cc1c(-c2c(-c3ccc(F)cc3)sc3ncnc(OC(Cc4ccccc4OCc4ccnc(-c5nccs5)n4)C(=O)O)c23)ccc(OCCN2CCN(C)CC2)c1Cl` [Example 36, (2R)-2-{[(5Sa)-5-{3-chloro-2-methyl-4-[2-(4-methylpiperazin-1-yl)ethoxy]phenyl}-6-(4-fluorophenyl)thieno[2,3-d]pyrimidin-4-yl]oxy}-3-(2-{[2-(1,3-thiazol-2-yl)pyrimidin-4-yl]methoxy}phenyl)propanoic acid], the IC50 at Mcl-1 protein (setting [3]) came to 1.1e-08 M; in assay [1] (Homo sapiens, NCI-H929, 48 h), 0.015 µM.

Consider `COc1ccccc1CC(Oc1ncnc2sc(-c3ccc(Cl)cc3)c(-c3ccc(OCCN4CCN(C)CC4)c(Cl)c3C)c12)C(=O)O` [Example 539, (2R)-2-{[(5Sa)-5-{3-chloro-2-methyl-4-[2-(4-methylpiperazin-1-yl)ethoxy]phenyl}-6-(4-chlorophenyl)thieno[2,3-d]pyrimidin-4-yl]oxy}-3-(2-methoxyphenyl)propanoic acid], for which the IC50 at Mcl-1 protein (setting [2]) stood at 7.2e-08 M; in assay [1] (Homo sapiens, NCI-H929, 48 h), 0.731 µM.

For `Cc1c(-c2c(-c3ccco3)sc3ncnc(OC(Cc4ccccc4OCCOc4ccccc4)C(=O)O)c23)ccc(OCCN2CCN(C)CC2)c1Cl` [Example 291, (2R)-2-{[(5Sa)-5-{3-chloro-2-methyl-4-[2-(4-methylpiperazin-1-yl)ethoxy]phenyl}-6-(furan-2-yl)thieno[2,3-d]pyrimidin-4-yl]oxy}-3-[2-(2-phenoxyethoxy)phenyl]propanoic acid], the IC50 was 3.8e-08 M at Mcl-1 protein (setting [3]) and 1.3 µM in assay [1] (Homo sapiens, NCI-H929, 48 h).

On to `COc1ccccc1CC(Oc1ncnc2sc(-c3ccc(F)c(Cl)c3)c(-c3ccc(OCCN4CCN(C)CC4)c(Cl)c3C)c12)C(=O)O` [Example 532, (2R)-2-{[6-(3-chloro-4-fluorophenyl)-(5Sa)-5-{3-chloro-2-methyl-4-[2-(4-methylpiperazin-1-yl)ethoxy]phenyl}thieno[2,3-d]pyrimidin-4-yl]oxy}-3-(2-methoxyphenyl)propanoic acid], for which the IC50 at Mcl-1 protein (setting [2]) is 5.9e-08 M; in assay [1] (Homo sapiens, NCI-H929, 48 h), 0.323 µM.

As to `Cc1c(-c2c(-c3ccc(F)o3)sc3ncnc(OC(Cc4ccccc4OCc4ccnc(C(F)(F)F)n4)C(=O)O)c23)ccc(OCCN2CCN(C)CC2)c1Cl` [Example 169, (2R)-2-{[(5Sa)-5-{3-chloro-2-methyl-4-[2-(4-methylpiperazin-1-yl)ethoxy]phenyl}-6-(5-fluorofuran-2-yl)thieno[2,3-d]pyrimidin-4-yl]oxy}-3-(2-{[2-(trifluoromethyl)pyrimidin-4-yl]methoxy}phenyl)propanoic acid], the IC50 was determined as 9e-09 M on Mcl-1 protein (setting [3]) and 0.009 µM in assay [1] (Homo sapiens, NCI-H929, 48 h).

With `COc1ccc(Cn2nccc2COc2ccccc2CC(Oc2ncnc3sc(-c4ccc(F)cc4)c(-c4ccc(OCCN5CCN(C)CC5)c(Cl)c4C)c23)C(=O)O)cc1` [Example 79, (2R)-2-{[(5Sa)-5-{3-chloro-2-methyl-4-[2-(4-methylpiperazin-1-yl)ethoxy]phenyl}-6-(4-fluorophenyl)thieno[2,3-d]pyrimidin-4-yl]oxy}-3-(2-{[1-(4-methoxybenzyl)-1H-pyrazol-5-yl]methoxy}phenyl)propanoic acid], the IC50 was 1.3e-08 M on Mcl-1 protein (setting [3]) and 0.168 µM in assay [1] (Homo sapiens, NCI-H929, 48 h).

In the case of `Cc1c(-c2c(-c3ccc(F)o3)sc3ncnc(OC(Cc4ccccc4OCCO)C(=O)O)c23)ccc(OCCN2CCN(C)CC2)c1Cl` [Example 193, (2R)-2-{[(5Sa)-5-{3-chloro-2-methyl-4-[2-(4-methylpiperazin-1-yl)ethoxy]phenyl}-6-(5-fluorofuran-2-yl)thieno[2,3-d]pyrimidin-4-yl]oxy}-3-[2-(2-hydroxyethoxy)phenyl]propanoic acid], the IC50 on Mcl-1 protein (setting [3]) was determined as 5.4e-09 M; in assay [1] (Homo sapiens, NCI-H929, 48 h), 0.116 µM.
